Reference: US20250108038A1 (priority 2023, published 2025)
pIC50: −log10 of the molar value. Several values for one entry are separate records, joined by “and”; a condition that tells them apart may be missing. Equal entries are not always repeated. Where two headings read alike, the source gives them in different places.

Tests used:
CYP2C19 [1] = target: T1, CYP2C19 (Homo sapiens, UniProt P33261)
[2] = Brain homogenate binding by equilibrium dialysis; type: in vitro ADME, mouse; conditions: for % Recovery / % Unbound: mouse brain, 2 μM, 37° C.
Procedure: Samples of spiked plasma and blank buffer (Dulbecco's phosphate-buffered saline, DPBS) and spiked brain homogenate and blank DPBS added to opposing sides of a dialysis membrane were collected from triplicate equilibrium dialysis chambers prior to (t=0) and following 1, 2, 4 and 6 hours of incubation at 37° C. […] The LC-MS/MS method(s) for analytes (Compound I-19, Compound A and Compound B) was cross-qualified for the analysis of the DPBS samples.
A secondary stock solution of 200 μM (74.2 ug/mL) will be prepared in DMSO. This secondary stock solution will then be diluted 100-fold to 2 μM ([…]) with male CD-1 mouse plasma and brain homogenate (1:2 v/v brain:Dulbecco's phosphate buffered saline, pH 7-7.2) or buffer (DPBS).
To 2.97 mL aliquots of thawed mouse plasma or brain homogenate warmed to 37° C., 30 ul aliquots of the secondary stock solution of the test compound will be added for final concentrations of 2 μM (0.742 ug/mL). An appropriate volume of warmed buffer (DPBS) will also be spiked with the test compound at a concentration of 2 μM ([…]). Triplicate aliquots (50 μL) of each spiked plasma, brain homogenate and buffer solution will be collected prior to dialysis into labeled 1.5 mL polypropylene tubes and then stored at approximately −80° C. until bioanalysis.
Equilibrium dialysis will be performed in a 96-well Teflon dialysis unit (HTDialysis, Gales Ferry, CT). Each well of the unit consists of two chambers separated by a vertically aligned dialysis membrane (regenerated cellulose) with a molecular weight cut-off of 12-14 KDa. The equilibrium dialysis membranes will first be presoaked in deionized water for 30 min, then soaked in 20% ethanol for 20 min, followed by rinsing twice with deionized water.
The equilibrium dialysis apparatus will be assembled according to the manufacturer's directions. One chamber of each well will be immediately filled with 150 μL of blank buffer (to prevent membrane dehydration). Aliquots (150 μL) of spiked plasma, spiked brain homogenate and spiked buffer will then be added to the opposing chamber in each well. Three wells per time point per matrix will be used. The top of the plate will be sealed with an adhesive sealing film to prevent evaporation and maintain constant pH during incubation.
The dialysis apparatus will be incubated at 37° C. in an orbital shaker/incubator (Lab-Line Enviro Shaker) set at 75 rpm.
Following 1, 2, 4 and 6 hours of incubation, samples from each plasma, brain homogenate and buffer compartment will be collected and the sample volume will be documented.

[3] = Plasma and brain concentrations after 3 mg/kg i.p. in male CD-1 mice; conditions: for fu* Cmax: fu by equilibrium dialysis after 6 h
Procedure: Following dosing, three animals were sacrificed per time-point for the collection of terminal plasma and brain. […] Pharmacokinetics (PK) parameters for plasma and whole brain were estimated from the mean plasma and brain concentration versus time profiles.
The animals will be acclimatized to their new environment for a minimum of 5 days prior to study start.
Any unused dosing solutions will be stored at approximately −80° C. until transferred on dry ice to the bioanalytical facility.
The animals will be dosed intra-peritoneally (i.p.) into the lower right quadrant of the abdomen using a 0.5 mL Tuberculin syringe with attached needle 27 G×[…].
Whole blood will be collected via cardiac puncture under isoflurane anesthesia from three mice at each time-point at the collection times outlined in Table 2. Up to 0.8 mL of blood will be collected into 0.8 mL mini-collect K2EDTA coated tubes. Blood tubes will be centrifuged at 3200×g for 5 min. at 4° C. and plasma transferred into 1.5 mL flip top tubes. One vial of plasma for each collection time point will stored at approximately […] until transferred on dry ice to the bioanalytical facility.
Following cardiac puncture, mice will be perfused with 12 mL of ice-cold PBS via the left ventricle. Brains will then be excised, blotted and placed into pre-weighed 5 mL self standing green top sample tubes. Tubes containing brains will be re-weighed and then snap frozen in liquid nitrogen. Brain samples will be stored frozen at approximately −80° C. until transferred on dry ice to the bioanalytical facility.

CYP3A4 = CYP3A4 (Homo sapiens, UniProt P08684); conditions: for Inhibition at Highest Test Article Concentration: 3A4, at 50 μM; for IC50: pooled human liver microsomes, 30 min
physchem = conditions: kinetic from dmso stock
CYP2C9 = CYP2C9 (Homo sapiens, UniProt P11712); experiment: in vitro; conditions: both, pH 7.4
CYP2C19 [4] = target: T1, CYP2C19; experiment: in vitro; conditions: both, pH 7.4
[5] = 3 mg/kg i.p. Compound I-19, male CD-1 mice
[6] = after 3 mg/kg i.p. Compound I-19
[7] = after 3 mg/kg i.p. Compound I-19, below the lower levels of quantitation
[8] = brain, 3 mg/kg i.p. Compound I-19, male CD-1 mice
[9] = plasma, 3 mg/kg i.p. Compound I-19, male CD-1 mice

Sequence of CYP3A4 (P08684 whole entry): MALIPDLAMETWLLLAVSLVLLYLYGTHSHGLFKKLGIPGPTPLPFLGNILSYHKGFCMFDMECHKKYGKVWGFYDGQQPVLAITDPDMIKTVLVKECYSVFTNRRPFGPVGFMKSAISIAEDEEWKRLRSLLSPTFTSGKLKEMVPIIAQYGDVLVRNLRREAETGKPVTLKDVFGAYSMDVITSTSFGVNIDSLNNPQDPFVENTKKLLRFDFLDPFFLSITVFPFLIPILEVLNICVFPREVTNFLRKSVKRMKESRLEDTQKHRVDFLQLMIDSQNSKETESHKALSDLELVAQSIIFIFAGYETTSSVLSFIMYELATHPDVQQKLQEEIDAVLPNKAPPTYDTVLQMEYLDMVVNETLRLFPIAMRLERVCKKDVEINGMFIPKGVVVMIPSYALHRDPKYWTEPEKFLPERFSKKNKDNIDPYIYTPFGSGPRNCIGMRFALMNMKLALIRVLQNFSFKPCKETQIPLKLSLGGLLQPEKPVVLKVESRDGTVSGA
T1 sequence (P33261 whole entry): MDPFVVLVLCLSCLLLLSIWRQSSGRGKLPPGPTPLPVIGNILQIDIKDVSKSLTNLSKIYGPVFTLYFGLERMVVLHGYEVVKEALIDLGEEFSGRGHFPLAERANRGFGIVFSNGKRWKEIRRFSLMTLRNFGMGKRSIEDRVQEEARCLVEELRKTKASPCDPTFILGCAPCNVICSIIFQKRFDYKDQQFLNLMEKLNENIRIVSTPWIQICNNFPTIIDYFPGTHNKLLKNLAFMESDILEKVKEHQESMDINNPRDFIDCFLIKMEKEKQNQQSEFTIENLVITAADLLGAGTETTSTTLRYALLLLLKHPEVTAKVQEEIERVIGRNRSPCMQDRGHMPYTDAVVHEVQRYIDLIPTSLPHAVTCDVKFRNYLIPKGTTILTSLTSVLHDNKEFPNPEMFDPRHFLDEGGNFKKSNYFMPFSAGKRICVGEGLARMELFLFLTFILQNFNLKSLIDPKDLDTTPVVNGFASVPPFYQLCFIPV
Sequence of CYP2C9 (P11712 whole entry): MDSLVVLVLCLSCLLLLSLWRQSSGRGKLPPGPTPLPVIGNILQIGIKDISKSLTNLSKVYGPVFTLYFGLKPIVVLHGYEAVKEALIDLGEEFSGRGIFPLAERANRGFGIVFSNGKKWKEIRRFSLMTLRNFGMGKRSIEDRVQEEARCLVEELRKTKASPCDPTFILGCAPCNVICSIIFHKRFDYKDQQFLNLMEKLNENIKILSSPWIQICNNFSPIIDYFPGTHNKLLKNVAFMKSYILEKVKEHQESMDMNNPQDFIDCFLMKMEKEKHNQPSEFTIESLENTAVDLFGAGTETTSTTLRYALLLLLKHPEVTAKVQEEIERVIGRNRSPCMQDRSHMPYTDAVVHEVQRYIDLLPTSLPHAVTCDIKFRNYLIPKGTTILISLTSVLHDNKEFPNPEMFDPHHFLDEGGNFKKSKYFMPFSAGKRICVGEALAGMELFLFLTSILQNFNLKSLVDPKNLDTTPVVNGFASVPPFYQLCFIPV

## Clc1ccc(C2(OCC3OCCO3)c3ccccc3C3=NCCN32)cc1 (stereo not shown) [Compound I-19]
CYP2C19 [1]; 2C19, Mephenytoin, at 50 μM
  Inhibition at Highest Test Article Concentration: 83.2 at 50 μM %
CYP2C19 [1]; microsomes
  pIC50: 4.76
[2]; 6 hours of dialysis
  % recovery, brain homogenate: 51.3±2.58%
[2]; dialysis time 1 h
  % Recovery: 87.8 ± 2.40%
  % Unbound: 1.33%
[2]; dialysis time 2 h
  % Recovery: 83.1 ± 1.58%
  % Unbound: 1.64 ± 0.181%
[2]; dialysis time 4 h
  % Recovery: 65.1 ± 4.05%
  % Unbound: 2.46 ± 0.183%
[2]; dialysis time 6 h
  % Recovery: 51.3 ± 2.58%
  % Unbound: 3.31 ± 0.385%
[3]; 3 mg/kg i.p.
  Cmax in brain relative to plasma: 1.8 fold
  Maximum brain concentration (Cmax) of Compound I-19: 1182 nmol/kg
  Tmax of Compound I-19 (plasma and brain): 5 min
  apparent half-life in brain: 25.6 min and 25.2 min
  apparent half-life in plasma: 25.4 min and 25.2 min
[3]; [5]
  (fu* AUC0-inf)brain/(fu*AUC0-inf)plasma ratio (Kp, uu): 2.12
  Brain/plasma AUC0-inf ratio (Kp): 2.38
[3]; 3 mg/kg i.p., AUC0-inf based
  brain to plasma partitioning coefficient (Kp): 2.38
[3]; 3 mg/kg i.p., corrected for unbound fractions
  brain to plasma unbound partition coefficient (Kp,uu): 2.12
[3]; [6]
  Tmax of Compound A in brain: 45 min
  Tmax of Compound A in plasma: 15 min
  peak brain concentration of Compound A: 60.3 nmol/kg
  peak plasma concentration of Compound A: 48.2 nmol/L
[3]; [7]
  brain concentration of Compound B: < 3 nmol/kg
  plasma concentration of Compound B: < 1 nM
[3]; brain (expressed as nmol/kg = nmol/L per footnote), 3 mg/kg i.p. Compound I-19, male CD-1 mice
  Cmax: 1180 nM
[3]; [8]
  AUC0-inf: 0.521 µM·h
  Apparent T1/2: 25.6 min
  Tmax: 5 min
  fu* AUC0-inf: 0.0172 µM·h
  fu* Cmax: 39.1 nM
[3]; [9]
  AUC0-inf: 0.218 µM·h
  Apparent T1/2: 25.4 min
  Cmax: 648 nM
  Tmax: 5 min
  fu* AUC0-inf: 0.00813 µM·h
  fu* Cmax: 24.1 nM
[3]; read-out: Maximum plasma concentration (Cmax) of Compound I-19, 3 mg/kg i.p.
  Cmax: 648 nM
CYP3A4; Midazolam
  Inhibition at Highest Test Article Concentration: 28.4 at 50 μM %
CYP3A4; Testosterone
  Inhibition at Highest Test Article Concentration: 57.5 at 50 μM %
CYP3A4; substrate midazolam
  IC50: did not inhibit
CYP3A4; substrate testosterone
  IC50: did not inhibit

## OC1(c2ccc(Cl)cc2)c2ccccc2C2=NCCN21 (stereo not shown) [Compound A, 5-(4-chlorophenyl)-2,3-dihydroimidazo[1,2-b]isoindol-5-ol, reference compound]
physchem; 32 °C, pH 7.4, aqueous buffer, transport buffer with sucrose for BCRP and MDR1 (pH 7.4, 32° C.)
  solubility kinetic: ≥ 50 µM
physchem; 37 °C, pH 7.4, aqueous buffer, HBSS (pH 7.4) uptake assay buffer
  solubility kinetic: ≥ 30 µM
physchem; 37 °C, pH 7.4, aqueous buffer, transport buffer for BSEP (pH 7.4)
  solubility kinetic: ≥ 35 µM
physchem; 37 °C, pH 8, aqueous buffer, KH (pH 8.0) uptake assay buffer
  solubility kinetic: ≥ 30 µM
CYP2C9
  inhibition at 10 µM: 10.2%
CYP2C19 [4]
  inhibition at 10 µM: 16.5%
